Results reported in patent publication US20240336608A1, “IL4I1 INHIBITORS AND METHODS OF USE” (Merck Sharp & Dohme LLC, priority 2023, published 2024).

Target: T1, recombinant IL4I1 (Homo sapiens, UniProt Q96RQ9)
T1 construct: purchased R&D Systems 5684-AO-020
T1 sequence (Q96RQ9 22-567): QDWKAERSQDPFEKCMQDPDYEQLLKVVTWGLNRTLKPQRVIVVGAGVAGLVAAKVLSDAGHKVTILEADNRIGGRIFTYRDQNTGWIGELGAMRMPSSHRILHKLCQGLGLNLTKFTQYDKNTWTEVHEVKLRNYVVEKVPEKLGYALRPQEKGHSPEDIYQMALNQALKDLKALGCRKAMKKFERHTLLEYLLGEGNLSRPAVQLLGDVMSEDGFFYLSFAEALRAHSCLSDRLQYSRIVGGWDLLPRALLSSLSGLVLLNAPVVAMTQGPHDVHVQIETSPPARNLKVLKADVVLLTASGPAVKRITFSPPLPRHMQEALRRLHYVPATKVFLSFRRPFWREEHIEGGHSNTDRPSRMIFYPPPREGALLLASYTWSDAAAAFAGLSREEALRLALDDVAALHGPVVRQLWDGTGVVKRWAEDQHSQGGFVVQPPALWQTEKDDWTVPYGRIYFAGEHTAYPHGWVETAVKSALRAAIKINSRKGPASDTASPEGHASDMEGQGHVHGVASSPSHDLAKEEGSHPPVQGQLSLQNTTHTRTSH
Test: IL4I1 Enzymatic Assay (Amplex Red/HRP coupled detection of H2O2, fluorescence)
Assay type: biochemical
Details: 1 nM recombinant IL4I1; four-hour pre-incubation with compound; 1 mM each Phe, Tyr, Trp; ten-point titration
Procedure: Interleukin 4 inducible protein 1 (IL4I1) is an L-amino oxidase that catalyzes the oxidation of aromatic residues (Phe, Trp and Tyr): L-amino acid+H2O+O2→2-oxo acid+NH3+H2O2. Equal molar of H2O2 and the corresponding alpha-ketoacid are produced when IL4I1 and substrate are added. In this assay, the hydrogen peroxide generated by IL4I1 is then detected through a coupled reaction with Amplex Red (10-acetyl-3,7-dihydroxyphenoxazine) and […] (HRP) to produce Resorufin product that could be detected in the form of fluorescence signals. The assessment of the inhibitory effect of small molecules (EC50) on IL4I1 is measured by the effectiveness of the compounds to inhibit the production of H202.
Using this assay, the potency (EC50) of each compound was determined from a ten-point (1:3 serial dilution) titration curve using the following outlined procedure. To each well of a black flat-bottom Greiner (Cat #781076) 384 well-plate, 125 nL of compound (0.5% DMSO in final assay volume of 25 μL) was dispensed, followed by the addition of 12.5 μL of 1× assay buffer (50 mM Hepes 7.0 and 0.005% Tween20 (Sigma, Cat #P8341; low peroxide grade)) containing 2 nM of recombinant IL4I1 (R&D Systems, Cat #5684-AO-020). Plates were placed in an ambient temperature humidified chamber for a four-hour pre-incubation with compound. Subsequently, each reaction was initiated by the addition of 12.5 μL 1× assay buffer containing 2 mM of each aromatic amino acids (Phe/Tyr/Trp), 0.1 mM Amplex Red and 2 U/mL of HRP. The final reaction in each well of 25 μL consists of 1 nM of IL4I1, 1 mM of each residue (Phe, Tyr and Trp), 0.05 mM Amplex Red and 1 U/mL of HRP. It should be noted that the concentrations of Amplex Red and HRP used here are in excess such that the conversion of H2O2 to Resorufin product occurs instantaneously and non-rate limiting. Reactions were allowed to proceed for 120 minutes followed by fluorescence readout on a Spectramax with the following set parameters: 544 nm excitation/590 nm emission, 570 nm cutoff (EnVision is an alternative reader). Dose-response curves were generated by plotting percent effect (% inhibition; Y-axis) vs. Log10 compound concentrations (X-axis). EC50 values were calculated using a non-linear regression, four-parameters sigmoidal dose-response model and are shown in Table 16.

Row | Compound | EC50
1 | O=C(NCc1nnc(-c2ccccc2)s1)c1cn([C@@H]2C[C@H]2CO)nn1 (single isomer, unassigned) [Example 142, Trans-1-(2-(hydroxymethyl)cyclopropyl)-N-((5-phenyl-1,3,4-thiadiazol-2-yl)methyl)-1H-1,2,3-triazole-4-carboxamide] | 33 nM
2 | O=C(NCc1nnc(-c2ccccc2)s1)c1cn(CC2CCOC2)nn1 (stereo not drawn) [Example 129, N-((5-phenyl-1,3,4-thiadiazol-2-yl)methyl)-1-((tetrahydrofuran-3-yl)methyl)-1H-1,2,3-triazole-4-carboxamide] | 124 nM
3 | O=C(NCc1nnc(-c2ccccc2)s1)c1cn(C2CC(CO)(CO)C2)nn1 [Example 175, 1-(3,3-bis(hydroxymethyl)cyclobutyl)-N-((5-phenyl-1,3,4-thiadiazol-2-yl)methyl)-1H-1,2,3-triazole-4-carboxamide] | 80 nM
4 | Cc1c(C(=O)NCc2nnc(-c3ccccc3)s2)oc2ccccc12 [Example 53, 3-methyl-N-[(5-phenyl-1,3,4-thiadiazol-2-yl)methyl]benzofuran-2-carboxamide] | 357 nM
5 | O=C(NCc1nnc(-c2ccccc2)s1)c1cn(CC(O)C(F)F)nn1 (single isomer, unassigned) [Example 139, 1-(3,3-difluoro-2-hydroxypropyl)-N-((5-phenyl-1,3,4-thiadiazol-2-yl)methyl)-1H-1,2,3-triazole-4-carboxamide] | 123 nM
6 | O=C(NCc1nnc(-c2ccccc2)s1)c1cn(C23CC(F)(C2)C3)nn1 [Example 173, 1-(3-fluorobicyclo[1.1.1]pentan-1-yl)-N-((5-phenyl-1,3,4-thiadiazol-2-yl)methyl)-1H-1,2,3-triazole-4-carboxamide] | 334 nM
7 | Cc1cc(C(=O)NCc2nnc(-c3ccccc3)s2)c(C)n1C [Example 50, 1,2,5-trimethyl-N-[(5-phenyl-1,3,4-thiadiazol-2-yl)methyl]pyrrole-3-carboxamide] | 537 nM
8 | Cc1ccc(-n2cc(C(=O)NCc3nnc(-c4ccccc4Cl)s3)nn2)c(C)n1 [Example 112, N-((5-(2-chlorophenyl)-1,3,4-thiadiazol-2-yl)methyl)-1-(2,6-dimethylpyridin-3-yl)-1H-1,2,3-triazole-4-carboxamide] | 82 nM
9 | CC(O)c1cc(C(=O)NCc2nnc(-c3ccccc3)s2)no1 (stereo not drawn) [Example 3, 5-(1-hydroxyethyl)-N-[(5-phenyl-1,3,4-thiadiazol-2-yl)methyl]isoxazole-3-carboxamide] | 9 nM

Results, then the molecule that gave them:

Row | EC50 | Compound
10 | 239 nM | O=C(NCc1nnc(-c2ccccc2)s1)c1cn(CC(O)C2CC2)nn1 (stereo not drawn) [Example 181, 1-(2-cyclopropyl-2-hydroxyethyl)-N-((5-phenyl-1,3,4-thiadiazol-2-yl)methyl)-1H-1,2,3-triazole-4-carboxamide]
11 | 21 nM | O=C(NCc1ccc(-c2ccccc2)nn1)c1cn(CC(F)F)nn1 [Example 293, 1-(2,2-difluoroethyl)-N-((6-phenylpyridazin-3-yl)methyl)-1H-1,2,3-triazole-4-carboxamide]
12 | 12 nM | O=C(NCc1nnc(-c2ccccc2)s1)c1cn(CC(O)CO)nn1 (stereo not drawn) [Example 191, 1-(2,3-dihydroxypropyl)-N-((5-phenyl-1,3,4-thiadiazol-2-yl)methyl)-1H-1,2,3-triazole-4-carboxamide]
13 | 654 nM | O=C(NCc1nnc(-c2ccccc2)s1)c1cnnn1C1CCOC1 (stereo not drawn) [Example 306, N-((5-phenyl-1,3,4-thiadiazol-2-yl)methyl)-1-(tetrahydrofuran-3-yl)-1H-1,2,3-triazole-5-carboxamide]
14 | 184 nM | Cn1cc(C(=O)NCc2cc(-c3ccccc3)no2)nn1 [Example 218, 1-methyl-N-[(3-phenyl-1,2-oxazol-5-yl)methyl]-1H-1,2,3-triazole-4-carboxamide]
15 | 140 nM | O=C(NCc1nnc(-c2ccccc2)s1)c1cn([C@H]2COC[C@@H]2F)nn1 [Example 199, 1-((3S,4R)-4-fluorotetrahydrofuran-3-yl)-N-((5-phenyl-1,3,4-thiadiazol-2-yl)methyl)-1H-1,2,3-triazole-4-carboxamide]
